Experimental data: patent US20180228827A1, “FIXED-DOSE COMBINATIONS OF ANTIVIRAL COMPOUNDS” (MERCK SHARP & DOHME CORP., priority 2015, published 2018)

Experiment: pH-dependent solubility profile of Compound II
Assay type: physicochemical
Details: particularly between pH 1-4

solubility profile: sharp pH-dependent solubility profile
Compound: COC(=O)N[C@H](C(=O)N1CCC[C@H]1c1ncc(-c2cc(F)c3c(c2)O[C@@H](c2cnc(C4CC4)s2)n2c-3cc3cc(-c4cnc([C@@H]5CCCN5C(=O)[C@@H](NC(=O)OC)C(C)C)[nH]4)ccc32)[nH]1)C(C)C [Compound II, dimethyl ((2S,2′S)-((2S,2′S)-2,2′-(5,5′-((S)-6-(2-cyclopropylthiazol-5-yl)-1-fluoro-6H-benzo[5,6][1,3]oxazino[3,4-a]indole-3,10-diyl)bis(1H-imidazole-5,2-diyl))bis(pyrrolidine-2,1-diyl))bis(3-methyl-1-oxobutane-2,1-diyl))dicarbamate]
